Consider 26 molecules from patent US10071164B2, “Estrogen-related receptor alpha based protac compounds and associated methods of use” (Yale University, priority 2014, dated 2018).

For orientation: Dmax means the largest share of the target that was removed.

The target of one experiment is T1, ERRα (Homo sapiens, UniProt P11474).
T1 sequence (P11474 1-423): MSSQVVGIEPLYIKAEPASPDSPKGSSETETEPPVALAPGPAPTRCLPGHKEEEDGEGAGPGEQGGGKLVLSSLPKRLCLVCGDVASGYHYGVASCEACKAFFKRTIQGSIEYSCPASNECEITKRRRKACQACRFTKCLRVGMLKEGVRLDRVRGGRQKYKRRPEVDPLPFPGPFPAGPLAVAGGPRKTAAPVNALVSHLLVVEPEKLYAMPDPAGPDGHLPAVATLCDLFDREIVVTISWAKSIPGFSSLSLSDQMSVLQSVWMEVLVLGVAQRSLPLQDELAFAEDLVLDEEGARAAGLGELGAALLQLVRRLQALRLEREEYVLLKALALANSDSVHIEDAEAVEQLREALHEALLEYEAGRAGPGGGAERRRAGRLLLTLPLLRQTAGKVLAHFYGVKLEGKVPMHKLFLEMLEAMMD
Nature of the experiment: ERRα degradation in ST-486 cells. Type of experiment: cell-based. The arrangement: degration of ERRα in either MCF-7 cells or ST-486 cells; endogenous in cells; host or cells: ST-486. Particulars: ST486, column C, read-out: ERRα Degradation Dmax (Estimated) ST-486 cells. The procedure: (§1) Using the methods as described herein, the following exemplary PROTAC compounds were prepared (see Table below). The exemplary compounds were also assayed for their ability to effectuate the degration of ERRα in either MCF-7 cells or ST-486 cells. Thus, in certain embodiments, the description provides the compounds below, including compositions comprising effective amount of a compound as listed below or a derivative, analog, or a prodrug of the same, in combination with at least one of a pharmaceutically acceptable carrier, another active agent, including a second PROTAC molecule as described herein or a combination thereof. In additional embodiments, the disclosure provides a method of treating a disease or condition in a subject in need thereof, comprising administering a composition comprising an effective amount of a compound listed below, wherein the composition is effective for treating or ameliorating a symptom of the disease or condition.
(§2) Legend for following table: A=ERRα Degradation Dmax (Estimated) MCF-7 cells; B=ERRα Degradation DC50 (Estimated) MCF-7 cells; C=ERRα Degradation Dmax (Estimated) ST-486 cells; D=ERRα Degradation DC50 (Estimated) ST-486 cells
On to `COc1cc(/C=C2\SC(=O)N(CCCCOCCOCCOCC(=O)N[C@H](C(=O)N3C[C@H](O)C[C@H]3C(=O)NCc3ccc(-c4scnc4C)cc3)C(C)(C)C)C2=O)ccc1Oc1ccc(C#N)cc1C(F)(F)F` [ARV N000236], for which the Dmax was 90%.

As to `COc1cc(/C=C2\SC(=O)N(CCOCCOCCCCOCCOCCOCC(=O)N[C@H](C(=O)N3C[C@H](O)C[C@H]3C(=O)NCc3ccc(-c4scnc4C)cc3)C(C)(C)C)C2=O)ccc1Oc1ccc(C#N)cc1C(F)(F)F` [ARV N000244], the Dmax is 80%.

For `COc1cc(/C=C2\SC(=O)N(CCCCOCCCCOCCCCCCC(=O)N[C@H](C(=O)N3C[C@H](O)C[C@H]3C(=O)NCc3ccc(-c4scnc4C)cc3)C(C)(C)C)C2=O)ccc1Oc1ccc(C#N)cc1C(F)(F)F` [ARV N000245], the Dmax is 40%.

For `COc1cc(/C=C2\SC(=O)N(CCCCOCCCCOCCCCCC(=O)N[C@H](C(=O)N3C[C@H](O)C[C@H]3C(=O)NCc3ccc(-c4scnc4C)cc3)C(C)(C)C)C2=O)ccc1Oc1ccc(C#N)cc1C(F)(F)F` [ARV N000246], the Dmax was 90%.

`COc1cc(/C=C2\SC(=O)N(CCOCCOCCCCOCCOCCOc3cc(-c4scnc4C)ccc3CNC(=O)[C@@H]3C[C@@H](O)CN3C(=O)[C@H](C(C)C)N3Cc4ccccc4C3=O)C2=O)ccc1Oc1ccc(C#N)cc1C(F)(F)F` [ARV N000265]: the Dmax is 80%.

`COc1cc(/C=C2\SC(=O)N(CCOCCOCCCCOCCCCOCCOCCOc3cc(-c4scnc4C)ccc3CNC(=O)[C@@H]3C[C@@H](O)CN3C(=O)[C@H](C(C)C)N3Cc4ccccc4C3=O)C2=O)ccc1Oc1ccc(C#N)cc1C(F)(F)F` [ARV N000266]: the Dmax is 50%.

As for `COc1cc(/C=C2\SC(=O)N(CCOCCOCCCCCOCCOCCOCC(=O)N[C@H](C(=O)N3C[C@H](O)C[C@H]3C(=O)NCc3ccc(-c4scnc4C)cc3)C(C)(C)C)C2=O)ccc1Oc1ccc(C#N)cc1C(F)(F)F` [ARV N000267], the greatest degradation seen (Dmax) is 80%.

In the case of `COc1cc(/C=C2\SC(=O)N(Cc3ccccc3CC(=O)N[C@H](C(=O)N3C[C@H](O)C[C@H]3C(=O)NCc3ccc(-c4scnc4C)cc3)C(C)(C)C)C2=O)ccc1Oc1ccc(C#N)cc1C(F)(F)F` [ARV N000381], the Dmax was 98%.

For the molecule `COc1cc(/C=C2\SC(=O)N(Cc3cccc(CC(=O)N[C@H](C(=O)N4C[C@H](O)C[C@H]4C(=O)NCc4ccc(-c5scnc5C)cc4)C(C)(C)C)c3)C2=O)ccc1Oc1ccc(C#N)cc1C(F)(F)F` [ARV N000382], the maximal degradation (Dmax) is 98%.

As for `COc1cc(/C=C2\SC(=O)N(CCOCCOCCOCC(=O)N[C@H](C(=O)N3C[C@H](O)C[C@H]3C(=O)NCc3ccc(-c4scnc4C)cc3)C(C)(C)C)C2=O)ccc1Oc1ccccc1C(F)(F)F` [ARV N000383], the Dmax is 98%.

For another experiment, the target named is T1, ERRα. As to the kind of experiment: ERRα degradation in MCF-7 cells. Type of experiment: cell-based. Further details: endogenous in cells; host or cells: MCF-7 (ATCC). The settings on record: MCF7, column A, read-out: ERRα Degradation Dmax (Estimated) MCF-7 cells. The procedure:
Human MDA-MB-231 and MCF7 cells (purchased authenticated ATCC cell lines) were cultured in complete growth medium (Dulbecco's modified Eagle's medium (DMEM)/F12 supplemented with 10% FBS; Life Technologies) and grown at 37° C. with 5% CO2. THP-1 cells (ATCC) were cultured in RPMI 1640+10% FBS and were grown at 37° C. with 5% CO2. For cellular degradation of ERRα, MCF7 cells were seeded in a 24-well plate at 70% confluency, allowed to attach overnight, and incubated with the indicated compounds. For cellular degradation of RIPK2, 5×10^6 cells were incubated with the indicated compounds. When indicated, a 1-hour pretreatment with 1 μM epoxomicin was performed before the addition of compound. When indicated for washout studies, after PROTAC treatment, cells were washed repeatedly with PBS and incubated with complete medium for the indicated time before harvesting. The THP1 cell line has been authenticated using the Promega GenePrint10 kit to generate a STR Profile for comparison to the expected profile reported by ATCC. Cells were also routinely tested and negative for mycoplasma. Cell lines were routinely tested for mycoplasma contamination at Clongen (Gaithersburg, Md.).
Total protein concentrations of tissue homogenates and cell lysates were determined by Pierce BCA kit (Thermo Fisher). Homogenates or lysates were separated on 4-12% NuPAGE gels (Life Technologies) and transferred onto PVDF membranes (iBlot; Life Technologies). Membranes were blocked with 5% non-fat milk in TBST (0.1% Tween-20 in Tris-Buffered Saline) before overnight incubation with indicated antibodies. After incubation with the appropriate horseradish peroxidase-conjugated secondary antibodies, the bands were visualized by enhanced chemiluminescence (Pierce West Femto ECL). The intensity of the bands was quantified with Bio-Rad Quantity One software. When the IRDye secondary antibodies were used, the infrared signal was detected using an Odyssey scanner (Li-COR Biosciences) and the densitometry was performed using the Odyssey 2.1 Analyser software. The IRDye secondary antibodies anti-mouse (926-32212) and anti-mouse (926-68072) were purchased from Li-COR Biosciences and used at a 1:5,000 dilution. Statistical analysis of tissue densitometry levels were performed with GraphPad Prism software using the indicated statistical test.
as §1, §2
For the molecule `COc1cc(/C=C2\SC(=O)N(CCOCCC(=O)N[C@H](C(=O)N3CC(O)C[C@H]3C(=O)NCc3ccc(-c4scnc4C)cc3)C(C)(C)C)C2=O)ccc1Oc1ccc(C#N)cc1C(F)(F)F` (some centres unmarked) [ARV N000020], the greatest degradation seen (Dmax) is 98%.

`COc1cc(/C=C2\SC(=O)N(CCOCCOCCOCCOc3cc(-c4scnc4C)ccc3CNC(=O)[C@@H]3C[C@@H](O)CN3C(=O)[C@H](C(C)C)N3Cc4ccccc4C3=O)C2=O)ccc1Oc1ccc(C#N)cc1C(F)(F)F` [ARV N000198]: the Dmax was 90%.

On to `COc1cc(/C=C2\SC(=O)N(CCOCCOCCCOCCOCCOc3cc(-c4scnc4C)ccc3CNC(=O)[C@@H]3C[C@@H](O)CN3C(=O)[C@H](C(C)C)N3Cc4ccccc4C3=O)C2=O)ccc1Oc1ccc(C#N)cc1C(F)(F)F` [ARV N000199], for which the Dmax was 90%.

In the case of `COc1cc(/C=C2\SC(=O)N(CCOCCOCCCCOCCCCOCCOCC(=O)N[C@H](C(=O)N3C[C@H](O)C[C@H]3C(=O)NCc3ccc(-c4scnc4C)cc3)C(C)(C)C)C2=O)ccc1Oc1ccc(C#N)cc1C(F)(F)F` [ARV N000200], the Dmax is 80%.

Regarding `COc1cc(/C=C2\SC(=O)N(CCOCCOCCCCCOCCCCCOCCOCC(=O)N[C@H](C(=O)N3C[C@H](O)C[C@H]3C(=O)NCc3ccc(-c4scnc4C)cc3)C(C)(C)C)C2=O)ccc1Oc1ccc(C#N)cc1C(F)(F)F` [ARV N000201], the Dmax was 90%.

Regarding `COc1cc(/C=C2\SC(=O)N(CCOCCC(=O)N[C@H](C(=O)N3C[C@@H](O)C[C@H]3C(=O)NCc3ccc(-c4scnc4C)cc3)C(C)(C)C)C2=O)ccc1Oc1ccc(C#N)cc1C(F)(F)F` [ARV N000203], the greatest degradation seen (Dmax) was 40%.

`COc1cc(/C=C2\SC(=O)N(CCOCCOCCOCCOCCOc3cc(-c4scnc4C)ccc3CNC(=O)[C@@H]3C[C@@H](O)CN3C(=O)[C@H](C(C)C)N3Cc4ccccc4C3=O)C2=O)ccc1Oc1ccc(C#N)cc1C(F)(F)F` [ARV N000219]: the maximal degradation (Dmax) was 98%.

As for `COc1cc(/C=C2\SC(=O)N(CCOCCOCCOCCOCCOCCOc3cc(-c4scnc4C)ccc3CNC(=O)[C@@H]3C[C@@H](O)CN3C(=O)[C@H](C(C)C)N3Cc4ccccc4C3=O)C2=O)ccc1Oc1ccc(C#N)cc1C(F)(F)F` [ARV N000220], the Dmax was 85%.

Take `COc1cc(/C=C2\SC(=O)N(CCOCCCOCCCOc3cc(-c4scnc4C)ccc3CNC(=O)[C@@H]3C[C@@H](O)CN3C(=O)[C@H](C(C)C)N3Cc4ccccc4C3=O)C2=O)ccc1Oc1ccc(C#N)cc1C(F)(F)F` [ARV N000222]: the Dmax was 90%.

For `COc1cc(/C=C2\SC(=O)N(CCOCCOCCOCCOCCOCC(=O)N[C@H](C(=O)N3C[C@H](O)C[C@H]3C(=O)NCc3ccc(-c4scnc4C)cc3)C(C)(C)C)C2=O)ccc1Oc1ccc(C#N)cc1C(F)(F)F` [ARV N000223], the maximal degradation (Dmax) is 80%.

For `COc1cc(/C=C2\SC(=O)N(CCCCCOCCOCCC(=O)N[C@H](C(=O)N3CC(O)C[C@H]3C(=O)NCc3ccc(-c4scnc4C)cc3)C(C)(C)C)C2=O)ccc1Oc1ccc(C#N)cc1C(F)(F)F` (some centres unmarked) [ARV N000224], the Dmax was 90%.

For `COc1cc(/C=C2\SC(=O)N(CCOCCOCCCCCOCCOCCOc3cc(-c4scnc4C)ccc3CNC(=O)[C@@H]3C[C@@H](O)CN3C(=O)[C@H](C(C)C)N3Cc4ccccc4C3=O)C2=O)ccc1Oc1ccc(C#N)cc1C(F)(F)F` [ARV N000231], the Dmax was 98%.

For `COc1cc(/C=C2\SC(=O)N(CCOCCOCCCCCOCCCCCOCCOCCOc3cc(-c4scnc4C)ccc3CNC(=O)[C@@H]3C[C@@H](O)CN3C(=O)[C@H](C(C)C)N3Cc4ccccc4C3=O)C2=O)ccc1Oc1ccc(C#N)cc1C(F)(F)F` [ARV N000232], the maximal degradation (Dmax) is 60%.

Turning to `COc1cc(/C=C2\SC(=O)N(CCCCOCCCCOCCCCOc3cc(-c4scnc4C)ccc3CNC(=O)[C@@H]3C[C@@H](O)CN3C(=O)[C@H](C(C)C)N3Cc4ccccc4C3=O)C2=O)ccc1Oc1ccc(C#N)cc1C(F)(F)F` [ARV N000233], the greatest degradation seen (Dmax) is 60%.

`COc1cc(/C=C2\SC(=O)N(CCOCCOCCOCCOCCOCCOCC(=O)N[C@H](C(=O)N3C[C@H](O)C[C@H]3C(=O)NCc3ccc(-c4scnc4C)cc3)C(C)(C)C)C2=O)ccc1Oc1ccc(C#N)cc1C(F)(F)F` [ARV N000234]: the Dmax is 98%.

With `COc1cc(/C=C2\SC(=O)N(CCOCCOCCCOCCOCCOCC(=O)N[C@H](C(=O)N3C[C@H](O)C[C@H]3C(=O)NCc3ccc(-c4scnc4C)cc3)C(C)(C)C)C2=O)ccc1Oc1ccc(C#N)cc1C(F)(F)F` [ARV N000235], the maximal degradation (Dmax) was 95%.
